Laboratory results reported in patent US20080058264A1, “AMINO-ACID CONTAINING COMPOSITION FOR INHIBITING ACCUMULATION OF FAT” (AJINOMOTO CO. INC, priority 2006, published 2008).

Tests used:
C57BL/6J male mice [1] = test: Experimental Example 1: mice fed high-fat feed with added amino acids for eight weeks; format: in vivo; details: compared with HF feed, 2.0% single amino acid or 1.0%+1.0% in high-fat feed; for body weight of mice at autopsy: FIG. 1; for weight of fat tissue of mice at autopsy (accumulation of body fat): FIG. 2
Description: Forty C57BL/6J male mice (eight-weeks old, available from CLEA Japan, Inc.) were fed with CRF-1 powder (available from Oriental Yeast Co., Ltd.) during one-week acclimation period. The mice were then subjected to an experiment at the beginning of nine-weeks old. […] The weight of feed intake was individually measured, and the amount of energy intake was calculated from the energy value corresponding to 1 g of each experimental feed. After the eight-weeks' experiment by feeding with the respective experimental diets, the mice were subjected to autopsy to determine their body weight, and total fat weight including the peri-epididymal fat, peri-renal fat, mesenteric fat, and subcutaneous fat around the femurs.

C57BL/6J male mice [2] = test: Reference Example: mice fed high-fat feed with 3.0% L-threonine for eight weeks; format: in vivo
Description: Twenty C57BL/6J male mice (eight-weeks old, available from CLEA Japan, Inc.) were fed with CRF-1 powder (available from Oriental Yeast Co., Ltd.) during one-week acclimation period. The mice were then subjected to an experiment at the beginning of nine-weeks old.
The weight of feed intake by the individual mouse was measured, and the amount of energy intake (i.e., kilocalories) was calculated according to the feed from the energy value corresponding to 1 g of each experimental feed. After the eight-weeks' experiment by feeding with the respective experimental diets, the mice were subjected to autopsy to determine their body weight, and the weight of fat tissue sincluding the peri-epididymal fat, peri-renal fat, and mesenteric fat.

SMILES	body weight of mice at autopsy (C57BL/6J male mice [1])	weight of fat tissue of mice at autopsy (accumulation of body fat) (C57BL/6J male mice [1])	amount of energy intake during the feeding period (C57BL/6J male mice [2]; 3.0% L-threonine, FIG. 15)	body weight of mice at autopsy (C57BL/6J male mice [2]; compared with HF feed, 3.0% L-threonine (group 3T), FIG. 13)	weight of fat tissue at autopsy (C57BL/6J male mice [2]; compared with HF feed, 3.0% L-threonine (group 3T), FIG. 14)
CC(C)C[C@H](N)C(=O)O [leucine, L-leucine]	not decreased	not decreased	–	–	–
C[C@@H](O)[C@H](N)C(=O)O [threonine, L-threonine]	not decreased	not decreased	not decreased	decreased	decreased
